ChEMBL document CHEMBL1140425, “Discovery of indoles as potent and selective inhibitors of the deacetylase SIRT1” (J Med Chem, 2005)
One block for each compound: values may come before it.

Assays:
[1] = target: hERG (KCNH2) potassium channel (Homo sapiens, UniProt Q12809); test: Percentage inhibitory activity against hERG potassium channel transfected in CHO cells at 10uM; details: CHO cells transfected with hERG
[2] = target: T1, NAD-dependent protein deacetylase sirtuin-2 (Homo sapiens, UniProt Q8IXJ6)
T1 sequence (Q8IXJ6 whole entry): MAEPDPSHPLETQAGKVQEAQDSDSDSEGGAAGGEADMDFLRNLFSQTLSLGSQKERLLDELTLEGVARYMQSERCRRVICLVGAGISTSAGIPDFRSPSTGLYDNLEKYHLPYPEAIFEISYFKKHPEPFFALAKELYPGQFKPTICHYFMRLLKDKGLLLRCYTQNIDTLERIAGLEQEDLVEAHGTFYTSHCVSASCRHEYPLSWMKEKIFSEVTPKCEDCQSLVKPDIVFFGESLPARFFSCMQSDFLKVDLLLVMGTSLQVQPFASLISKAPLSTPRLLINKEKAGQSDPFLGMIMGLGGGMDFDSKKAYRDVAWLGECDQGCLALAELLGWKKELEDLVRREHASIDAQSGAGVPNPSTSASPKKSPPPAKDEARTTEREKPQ
Description: Inhibitory activity against recombinant human SIRT2 expressed in Escherichia coli by fluorimetric assay

[3] = target: T2, NAD-dependent protein deacetylase sirtuin-3, mitochondrial (Homo sapiens, UniProt Q9NTG7); test: Inhibitory activity against recombinant human SIRT3 expressed in Escherichia coli by fluorimetric assay
T2 sequence (Q9NTG7 whole entry): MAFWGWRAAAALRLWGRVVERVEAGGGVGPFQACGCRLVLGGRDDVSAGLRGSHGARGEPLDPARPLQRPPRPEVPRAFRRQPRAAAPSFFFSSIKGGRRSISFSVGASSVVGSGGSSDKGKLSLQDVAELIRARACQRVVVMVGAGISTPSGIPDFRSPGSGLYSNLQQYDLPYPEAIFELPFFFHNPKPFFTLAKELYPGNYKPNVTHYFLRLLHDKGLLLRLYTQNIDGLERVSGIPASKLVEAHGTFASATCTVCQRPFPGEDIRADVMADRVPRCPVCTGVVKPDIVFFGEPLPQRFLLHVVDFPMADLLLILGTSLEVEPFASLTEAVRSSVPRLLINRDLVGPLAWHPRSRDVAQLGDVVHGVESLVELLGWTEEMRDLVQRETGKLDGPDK

[4] = target: Histone deacetylase; test: Inhibitory activity against human HDAC in HeLa cell extract by fluorimetric assay; type: cell-free
[5] = target: CYP2D6 (Homo sapiens, UniProt P10635); test: Percent inhibitory activity against human CYP2D6 at 1uM; type: ADME
CYP2D6, sequence (P10635 whole entry): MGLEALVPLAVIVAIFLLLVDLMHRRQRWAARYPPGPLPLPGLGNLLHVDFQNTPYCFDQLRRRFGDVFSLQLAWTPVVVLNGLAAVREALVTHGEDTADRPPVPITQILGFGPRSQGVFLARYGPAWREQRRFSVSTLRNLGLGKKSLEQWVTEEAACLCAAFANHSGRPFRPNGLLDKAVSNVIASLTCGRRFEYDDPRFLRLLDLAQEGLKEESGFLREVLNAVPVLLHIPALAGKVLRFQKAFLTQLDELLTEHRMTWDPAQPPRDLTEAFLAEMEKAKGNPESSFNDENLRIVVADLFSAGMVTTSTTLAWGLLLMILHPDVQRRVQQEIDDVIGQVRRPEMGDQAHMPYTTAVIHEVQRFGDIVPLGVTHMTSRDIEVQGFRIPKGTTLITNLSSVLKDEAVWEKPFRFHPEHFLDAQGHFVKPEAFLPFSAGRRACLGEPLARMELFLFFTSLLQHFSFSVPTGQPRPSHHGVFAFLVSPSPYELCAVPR

[6] = target: CYP2C9 (Homo sapiens, UniProt P11712); test: Percent inhibitory activity against human CYP2C9 at 1uM; type: ADME
CYP2C9, sequence (P11712 whole entry): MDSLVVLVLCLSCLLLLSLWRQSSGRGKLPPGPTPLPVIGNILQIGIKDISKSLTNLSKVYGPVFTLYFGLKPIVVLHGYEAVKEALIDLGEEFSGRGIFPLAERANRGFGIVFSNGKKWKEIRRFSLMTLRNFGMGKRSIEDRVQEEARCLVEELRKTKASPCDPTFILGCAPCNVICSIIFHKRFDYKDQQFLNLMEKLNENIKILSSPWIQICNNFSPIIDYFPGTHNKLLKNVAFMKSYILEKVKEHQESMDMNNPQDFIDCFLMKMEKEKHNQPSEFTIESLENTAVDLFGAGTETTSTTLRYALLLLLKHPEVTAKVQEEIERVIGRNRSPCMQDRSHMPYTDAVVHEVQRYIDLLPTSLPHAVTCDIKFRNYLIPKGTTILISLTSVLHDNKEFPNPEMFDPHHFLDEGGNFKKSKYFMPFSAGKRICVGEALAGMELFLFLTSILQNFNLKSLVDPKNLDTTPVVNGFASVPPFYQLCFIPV

[7] = target: T3, CYP1A2 (Homo sapiens, UniProt P05177); test: Percent inhibitory activity against human CYP1A2 at 1uM; type: ADME
T3 sequence (P05177 whole entry): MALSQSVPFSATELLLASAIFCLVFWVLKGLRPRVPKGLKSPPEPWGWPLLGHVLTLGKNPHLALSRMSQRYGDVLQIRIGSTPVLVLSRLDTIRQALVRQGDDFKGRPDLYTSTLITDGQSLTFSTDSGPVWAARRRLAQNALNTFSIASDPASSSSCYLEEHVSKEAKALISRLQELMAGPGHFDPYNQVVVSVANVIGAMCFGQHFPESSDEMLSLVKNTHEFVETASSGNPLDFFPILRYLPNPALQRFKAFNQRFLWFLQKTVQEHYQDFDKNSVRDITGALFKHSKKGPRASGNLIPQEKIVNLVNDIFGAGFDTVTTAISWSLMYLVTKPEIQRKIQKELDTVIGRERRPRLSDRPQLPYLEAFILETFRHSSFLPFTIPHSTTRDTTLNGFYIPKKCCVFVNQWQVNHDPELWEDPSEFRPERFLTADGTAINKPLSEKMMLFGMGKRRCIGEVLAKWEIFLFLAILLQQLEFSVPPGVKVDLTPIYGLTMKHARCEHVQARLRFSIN

[8] = target: CYP3A4 (Homo sapiens, UniProt P08684); test: Percent inhibitory activity against human CYP3A4 at 1uM; type: ADME
CYP3A4, sequence (P08684 whole entry): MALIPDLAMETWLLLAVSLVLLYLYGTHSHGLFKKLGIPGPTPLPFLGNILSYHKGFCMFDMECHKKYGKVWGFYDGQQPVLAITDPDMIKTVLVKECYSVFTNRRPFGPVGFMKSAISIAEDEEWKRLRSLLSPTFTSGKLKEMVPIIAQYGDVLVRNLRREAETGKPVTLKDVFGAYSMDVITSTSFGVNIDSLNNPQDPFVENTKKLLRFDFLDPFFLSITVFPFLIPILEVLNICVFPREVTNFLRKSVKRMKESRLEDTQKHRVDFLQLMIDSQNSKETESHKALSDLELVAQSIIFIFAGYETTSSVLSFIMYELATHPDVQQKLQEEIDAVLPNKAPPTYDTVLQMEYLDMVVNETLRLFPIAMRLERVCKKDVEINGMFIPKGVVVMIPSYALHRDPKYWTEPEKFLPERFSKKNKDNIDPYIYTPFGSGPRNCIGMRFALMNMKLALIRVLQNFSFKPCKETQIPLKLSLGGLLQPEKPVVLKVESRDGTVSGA

[9] = target: CYP2C19 (Homo sapiens, UniProt P33261); test: Percent inhibitory activity against human CYP2C19 at 1uM; type: ADME
CYP2C19, sequence (P33261 whole entry): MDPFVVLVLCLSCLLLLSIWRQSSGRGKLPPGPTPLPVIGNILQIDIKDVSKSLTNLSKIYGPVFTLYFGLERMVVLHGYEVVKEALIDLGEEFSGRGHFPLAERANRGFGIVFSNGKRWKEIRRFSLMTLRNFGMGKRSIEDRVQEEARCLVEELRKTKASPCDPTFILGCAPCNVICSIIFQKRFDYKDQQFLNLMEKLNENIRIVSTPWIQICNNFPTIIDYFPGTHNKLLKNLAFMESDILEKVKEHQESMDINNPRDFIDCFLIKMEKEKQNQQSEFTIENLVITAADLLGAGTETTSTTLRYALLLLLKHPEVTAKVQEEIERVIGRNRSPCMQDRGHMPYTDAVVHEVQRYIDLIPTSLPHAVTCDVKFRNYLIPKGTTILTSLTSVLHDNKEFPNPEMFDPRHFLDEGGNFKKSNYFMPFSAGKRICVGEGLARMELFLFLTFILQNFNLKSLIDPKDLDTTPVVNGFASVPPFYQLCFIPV

[10] = target: T4, NAD-dependent protein deacetylase sirtuin-1 (Homo sapiens, UniProt Q96EB6)
T4 sequence (Q96EB6 whole entry): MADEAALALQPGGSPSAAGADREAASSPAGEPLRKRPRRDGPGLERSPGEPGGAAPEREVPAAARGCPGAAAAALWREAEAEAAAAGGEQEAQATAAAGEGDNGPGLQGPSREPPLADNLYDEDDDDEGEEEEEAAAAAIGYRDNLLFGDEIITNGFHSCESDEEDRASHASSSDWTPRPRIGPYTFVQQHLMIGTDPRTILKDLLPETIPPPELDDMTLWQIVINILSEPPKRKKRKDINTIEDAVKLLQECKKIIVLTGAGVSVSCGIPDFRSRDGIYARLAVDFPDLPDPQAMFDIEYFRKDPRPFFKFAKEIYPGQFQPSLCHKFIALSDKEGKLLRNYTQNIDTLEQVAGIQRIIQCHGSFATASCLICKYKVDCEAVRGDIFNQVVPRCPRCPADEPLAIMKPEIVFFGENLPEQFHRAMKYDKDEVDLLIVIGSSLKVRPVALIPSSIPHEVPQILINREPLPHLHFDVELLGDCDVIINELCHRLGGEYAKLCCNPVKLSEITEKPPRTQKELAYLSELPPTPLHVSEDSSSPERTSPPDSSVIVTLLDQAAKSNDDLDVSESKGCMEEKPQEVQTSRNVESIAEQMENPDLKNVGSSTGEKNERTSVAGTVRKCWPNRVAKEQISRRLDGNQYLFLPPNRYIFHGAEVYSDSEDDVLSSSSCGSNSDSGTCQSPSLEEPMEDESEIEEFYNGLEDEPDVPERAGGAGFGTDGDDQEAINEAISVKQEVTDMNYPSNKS
Description: Inhibitory activity against human SIRT1 by radiochemical Nicotinamide release assay

[11] = target: T4, NAD-dependent protein deacetylase sirtuin-1; remark: listed apart in the source
Description: Inhibitory activity against recombinant human SIRT1 expressed in Escherichia coli by fluorimetric assay

[12] = Half life in rat liver microsomes; type: ADME, Microsome
[13] = Serum half life in mice administered with 10 mg/kg, po; type: ADME, organism-based; parameters: dose 10 mg/kg, route oral; details: C57bl/6J, mouse
[14] = system: Liver microsomes; test: Stability in rat liver microsomes at 10 uM; type: ADME, Microsome

hERG (KCNH2) potassium channel, sequence (Q12809 whole entry): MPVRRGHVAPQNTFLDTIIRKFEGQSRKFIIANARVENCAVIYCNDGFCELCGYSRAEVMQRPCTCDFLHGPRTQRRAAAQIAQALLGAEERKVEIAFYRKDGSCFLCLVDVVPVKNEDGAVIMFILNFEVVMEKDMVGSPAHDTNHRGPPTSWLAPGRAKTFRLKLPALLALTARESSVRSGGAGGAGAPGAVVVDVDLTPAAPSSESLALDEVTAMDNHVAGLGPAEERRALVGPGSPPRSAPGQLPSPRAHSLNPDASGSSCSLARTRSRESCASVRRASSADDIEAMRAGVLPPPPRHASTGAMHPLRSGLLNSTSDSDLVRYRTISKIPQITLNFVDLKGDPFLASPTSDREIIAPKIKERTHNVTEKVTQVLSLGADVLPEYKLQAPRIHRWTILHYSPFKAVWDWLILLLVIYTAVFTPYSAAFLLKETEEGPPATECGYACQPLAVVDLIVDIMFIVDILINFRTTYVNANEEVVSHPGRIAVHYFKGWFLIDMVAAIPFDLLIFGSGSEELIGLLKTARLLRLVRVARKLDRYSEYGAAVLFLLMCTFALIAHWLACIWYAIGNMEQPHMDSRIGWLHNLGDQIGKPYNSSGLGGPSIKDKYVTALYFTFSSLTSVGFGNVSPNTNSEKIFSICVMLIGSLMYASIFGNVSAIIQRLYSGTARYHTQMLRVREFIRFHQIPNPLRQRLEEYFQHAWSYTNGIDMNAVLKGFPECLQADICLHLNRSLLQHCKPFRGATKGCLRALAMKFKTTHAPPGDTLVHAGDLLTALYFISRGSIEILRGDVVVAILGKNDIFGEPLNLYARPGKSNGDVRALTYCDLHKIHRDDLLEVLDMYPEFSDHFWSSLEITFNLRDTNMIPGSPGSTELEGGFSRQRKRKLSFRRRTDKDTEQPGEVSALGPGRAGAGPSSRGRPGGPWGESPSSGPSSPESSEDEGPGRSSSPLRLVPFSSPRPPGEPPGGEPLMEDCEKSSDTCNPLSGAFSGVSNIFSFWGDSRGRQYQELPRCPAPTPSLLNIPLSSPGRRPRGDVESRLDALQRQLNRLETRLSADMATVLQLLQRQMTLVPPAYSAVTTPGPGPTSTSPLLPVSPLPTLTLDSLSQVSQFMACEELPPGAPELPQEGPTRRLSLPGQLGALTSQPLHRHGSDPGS

SMILES: NC(=O)C1CCCc2c1[nH]c1ccccc21 (configuration not stated)
inhibition at 10 µM [1]: 0% | IC50 [2]: 24.8 µM | IC50 [3]: > 100 µM | IC50 [4]: > 100 µM | inhibition at 1 µM [5]: -4% | inhibition at 1 µM [6]: -8% | inhibition at 1 µM [7]: 4% | inhibition at 1 µM [8]: -22% | inhibition at 1 µM [9]: 5%

SMILES: CCOC(=O)C1CCCc2c1[nH]c1ccc(Cl)cc21 (configuration not stated)
IC50 [11]: > 100 µM

SMILES: NC(=O)CNC(=O)C1CCCc2c1[nH]c1ccc(Cl)cc21 (configuration not stated)
IC50 [11]: > 100 µM

SMILES: O=C(O)C1CCCc2c1[nH]c1ccc(Cl)cc21 (configuration not stated)
IC50 [11]: > 100 µM

SMILES: Cc1ccc2[nH]c3c(c2c1)CCCC3CN (configuration not stated)
IC50 [11]: > 100 µM

SMILES: CCNC(=O)C1CCCc2c1[nH]c1ccc(Cl)cc21 (configuration not stated)
IC50 [11]: > 100 µM

SMILES: Cc1ccc2c(c1)c1c(n2C)C(C(N)=O)CCC1 (configuration not stated)
IC50 [11]: > 100 µM

SMILES: CCN(CC)C(=O)C1CCCc2c1[nH]c1ccc(Cl)cc21 (configuration not stated)
IC50 [11]: > 100 µM

SMILES: NC(=O)C1NCCc2c1[nH]c1ccc(Br)cc21 (configuration not stated)
IC50 [11]: > 100 µM

SMILES: NC(=O)C1CCCc2c1[nH]c1ccc(Cl)cc21 (configuration not stated)
inhibition at 10 µM [1]: 0% | IC50 [4]: > 100 µM | inhibition at 1 µM [5]: -5% | inhibition at 1 µM [6]: -5% | half-life [12]: > 1 h | half-life [13]: 2.27 h | inhibition at 1 µM [7]: 11% | inhibition at 1 µM [8]: -26% | inhibition at 1 µM [9]: 6% | Stability [14]: Stable

SMILES: NC(=O)C1CCCCc2c1[nH]c1ccc(Cl)cc21 (configuration not stated)
IC50 [3]: > 100 µM | IC50 [4]: > 100 µM | inhibition at 1 µM [5]: 3% | inhibition at 1 µM [6]: 11% | half-life [12]: > 1 h | half-life [13]: 1.57 h | inhibition at 1 µM [7]: 23% | inhibition at 1 µM [8]: -12% | inhibition at 1 µM [9]: 23% | Stability [14]: Stable

More lines, in order of falling IC50 [11], values ahead:

IC50 [11]: 79.9 µM
SMILES: CC(=O)N1CCc2c([nH]c3ccc(Cl)cc23)C1C(N)=O (configuration not stated)

IC50 [11]: 77.6 µM
SMILES: O=C(NO)C1CCCc2c1[nH]c1ccc(Cl)cc21 (configuration not stated)

IC50 [11]: 34.5 µM
SMILES: NC(=O)C1CCc2c([nH]c3ccc(Cl)cc23)C1 (configuration not stated)

IC50 [11]: 18 µM
SMILES: NC(=O)C1NCCc2c1[nH]c1ccc(Cl)cc21 (configuration not stated)

IC50 [11]: 15 µM
SMILES: NC(=O)C1CCCc2c1[nH]c1ccc(O)cc21 (configuration not stated)

IC50 [11]: 13 µM
SMILES: Cc1ccc2[nH]c3c(c2c1)CCCC3(C)C(N)=O (configuration not stated)

IC50 [11]: 2.67 µM
SMILES: NC(=O)C1CCc2c1[nH]c1ccccc21 (configuration not stated)

IC50 [11]: 2.44 µM
SMILES: NC(=O)C1CCc2c([nH]c3ccc(Br)cc23)C1 (configuration not stated)

IC50 [11]: 0.409 µM
SMILES: NC(=O)C1CCc2c1[nH]c1ccc(Cl)cc21 (configuration not stated)

IC50 [10]: 2.5 µM | IC50 [2]: 11.5 µM | IC50 [3]: > 100 µM | IC50 [4]: > 100 µM | inhibition at 1 µM [5]: -3% | inhibition at 1 µM [6]: -9% | inhibition at 1 µM [7]: 7% | IC50 [11]: 0.205 µM | inhibition at 1 µM [8]: -16% | inhibition at 1 µM [9]: 9%
SMILES: Cc1ccc2[nH]c3c(c2c1)CCCC3C(N)=O (configuration not stated)
inhibition at 10 µM [1]: 0%
